As a reminder, the bioavailability is dose-corrected exposure relative to a reference, in per cent. Low values mean little systemic uptake, high ones much systemic uptake. What is called GI50 is the concentration at which growth is held to half of that of the control. A high value points to lower sensitivity of the cells.

The structures appear in SMILES notation. In brackets after ≈: the same amount, converted by molar mass.

The results in this text go back to ChEMBL document CHEMBL5244275, “Geminal Diheteroatomic Motifs: Some Applications of Acetals, Ketals, and Their Sulfur and Nitrogen Homologues in Medicinal Chemistry and Drug Design” (J Med Chem, 2021).

System in the first series: not listed separately
The series can be described thus: Chemical stability of the compound assessed as acid-catalyzed hydrolysis by measuring rate constant. Type of series: physicochemical.
Conditions: not given
In the case of `Nc1ncnc2c1ncn2[C@@H]1O[C@H](CO)[C@H](O)[C@@H]1O`, the Drug metabolism was 9.6 10^-3L/mol/min. As to `Nc1ncnc2c1ncn2[C@@H]1O[C@H](CO)[C@H](O)[C@H]1O`, the Drug metabolism is recorded as 0.29 10^-3L/mol/min.

In the case of `Nc1ncnc2c1ncn2[C@@H]1O[C@H](CO)[C@@H](O)[C@H]1O` [ADENOSINE], the Drug metabolism is 0.82 10^-3L/mol/min. In the case of `Nc1ncnc2c1ncn2[C@@H]1O[C@H](CO)C[C@H]1O` [CORDYCEPIN], the Drug metabolism was 0.012 L/mol/min.

System in the next series: not listed separately
The series can be described thus: Oral bioavailability in dog. Type of series: ADME, organism-based, Canis lupus familiaris. The following applies: in vivo.
The molecule `C[C@@H](c1c[nH]c2ccccc12)[C@H](C(=O)NC[C@H]1OC[C@H](N)CO1)N1CCN(CCC(c2ccccc2)c2ccccc2)C1=O` had a bioavailability of 64%. `C[C@@H](c1c[nH]c2ccccc12)[C@H](C(=O)NC[C@H]1OC[C@H](N)CO1)N1CCN(CCCc2ccccc2)C1=O` returned a bioavailability of 19%.

Another series deals with PC-6. Kind of series: Growth inhibition of human PC-6 cells. Type of series: functional.
Conditions: not given
With `CC(=O)O[C@@]12CO[C@@H]1C[C@H](O)[C@@]1(C)C(=O)[C@H](O)C3=C(C)[C@@H](OC(=O)[C@H](O)[C@@H](NC(=O)OC(C)(C)C)c4ccccc4)C[C@@](O)([C@@H](OC(=O)c4ccccc4)[C@H]21)C3(C)C` [DOCETAXEL ANHYDROUS], growth was halved (GI50) at 1.48 ng/mL (≈ 1.83 nM). On the same count and under the same terms, next, `CC(=O)O[C@@]12CO[C@@H]1CC[C@@]1(C)[C@@H]3O[C@H](CN4CCOCC4)O[C@@H]3C3=C(C)[C@@H](OC(=O)[C@H](O)[C@@H](NC(=O)OC(C)(C)C)c4ncccc4F)C[C@@](O)([C@@H](OC(=O)c4ccccc4)[C@@H]12)C3(C)C`: 0.29 ng/mL (≈ 0.314 nM). Regarding `CC(=O)O[C@@]12CO[C@@H]1CC[C@@]1(C)[C@@H]3O[C@H](CN(C)C)O[C@@H]3C3=C(C)[C@@H](OC(=O)[C@H](O)[C@@H](NC(=O)OC(C)(C)C)c4ncccc4F)C[C@@](O)([C@@H](OC(=O)c4ccccc4)[C@@H]12)C3(C)C` [TESETAXEL], it took 0.38 ng/mL (≈ 0.431 nM) to inhibit growth by half (GI50). For `CC(=O)O[C@H]1C(=O)[C@@]2(C)[C@H]([C@H](OC(=O)c3ccccc3)[C@]3(O)C[C@H](OC(=O)[C@H](O)[C@@H](NC(=O)c4ccccc4)c4ccccc4)C(C)=C1C3(C)C)[C@]1(OC(C)=O)CO[C@@H]1C[C@@H]2O` [PACLITAXEL], the GI50 stood at 1.27 ng/mL (≈ 1.49 nM). In turn, `CC(=O)O[C@@]12CO[C@@H]1CC[C@@]1(C)[C@H]3OC(C)(C)O[C@@H]3C3=C(C)[C@@H](OC(=O)[C@H](O)[C@@H](NC(=O)OC(C)(C)C)c4ccccn4)C[C@@](O)([C@@H](OC(=O)c4ccccc4)[C@@H]12)C3(C)C` had a GI50 of 0.33 ng/mL (≈ 0.395 nM).

System in a further series: not listed separately
Kind of series: Growth inhibition of human PC-12 cells. Type of series: functional, PC12.
Conditions: not given
`CC(=O)O[C@@]12CO[C@@H]1C[C@H](O)[C@@]1(C)C(=O)[C@H](O)C3=C(C)[C@@H](OC(=O)[C@H](O)[C@@H](NC(=O)OC(C)(C)C)c4ccccc4)C[C@@](O)([C@@H](OC(=O)c4ccccc4)[C@H]21)C3(C)C` [DOCETAXEL ANHYDROUS] displayed a GI50 of 42.2 ng/mL (≈ 52.2 nM). Take `CC(=O)O[C@@]12CO[C@@H]1CC[C@@]1(C)[C@@H]3O[C@H](CN4CCOCC4)O[C@@H]3C3=C(C)[C@@H](OC(=O)[C@H](O)[C@@H](NC(=O)OC(C)(C)C)c4ncccc4F)C[C@@](O)([C@@H](OC(=O)c4ccccc4)[C@@H]12)C3(C)C`: the GI50 came to 0.14 ng/mL (≈ 0.152 nM). `CC(=O)O[C@@]12CO[C@@H]1CC[C@@]1(C)[C@@H]3O[C@H](CN(C)C)O[C@@H]3C3=C(C)[C@@H](OC(=O)[C@H](O)[C@@H](NC(=O)OC(C)(C)C)c4ncccc4F)C[C@@](O)([C@@H](OC(=O)c4ccccc4)[C@@H]12)C3(C)C` [TESETAXEL] returned a GI50 of 0.62 ng/mL (≈ 0.703 nM).

The molecule `CC(=O)O[C@H]1C(=O)[C@@]2(C)[C@H]([C@H](OC(=O)c3ccccc3)[C@]3(O)C[C@H](OC(=O)[C@H](O)[C@@H](NC(=O)c4ccccc4)c4ccccc4)C(C)=C1C3(C)C)[C@]1(OC(C)=O)CO[C@@H]1C[C@@H]2O` [PACLITAXEL] returned a GI50 of 539 ng/mL (≈ 631 nM). On to `CC(=O)O[C@@]12CO[C@@H]1CC[C@@]1(C)[C@H]3OC(C)(C)O[C@@H]3C3=C(C)[C@@H](OC(=O)[C@H](O)[C@@H](NC(=O)OC(C)(C)C)c4ccccn4)C[C@@](O)([C@@H](OC(=O)c4ccccc4)[C@@H]12)C3(C)C`, for which halving of growth (GI50) required 0.15 ng/mL (≈ 0.18 nM).

System in a further series: not listed separately
Kind of series: Oral bioavailability in mouse. Type of series: ADME, organism-based. The following applies: in vivo.
`C=C(C)CN1C[C@H](OC[C@@]23C[C@@H]4[C@H](C)CC[C@H]4[C@@]4(C=O)C[C@@H]2C=C(C(C)C)[C@@]34C(=O)O)O[C@H](C)[C@@H](OC)C1` yielded a bioavailability of 63%.

System in a further series: not listed separately
The series can be described thus: Stability of the compound assessed as compound hydrolysis by measuring rate constant by NMR spectroscopic analysis. Type of series: physicochemical.
Conditions: not given
On to `C=CC1(C)CCCCC1`, for which the K is reported as 9.9 10^-3No_unit. On to `CC(Cl)C1(C)CCCCC1` (stereo not drawn), for which the K is given as 2.25 10^-6No_unit.

`C=CC1(C)OCCO1`: the K is given as 8.8 10^-4No_unit. Take `CC(Cl)C1(C)OCCO1` (stereo not drawn): the K is recorded as 0. Still for that read-out and setting: next, `C=CC1(C)CCC(C)(C)CC1`: 7.33 10^-4No_unit.

As to `CC(Cl)C1(C)CCC(C)(C)CC1` (stereo not drawn), the K turned out to be 0.

System in a further series: not listed separately
The series can be described thus: Stability of the compound in HCL solution assessed as compound hydrolysis by measuring relative rate constant by NMR analysis. Type of series: physicochemical. The note with it: buffer.
For `C1COCOC1`, the K was 1.

Consider `C1CCC2(CC1)OCCO2`, for which the K is given as 5.4 10^5No_unit. Regarding `COC1OCCCO1`, the K is given as 9.3 10^4No_unit. Still for that read-out and setting: for `c1ccc2c(c1)OC1(CCCCC1)O2` the value was 1; for `CCC1OCCCO1`, 1 10^2No_unit; for `CCOC1(OCC)CCCCC1`, 1.3 10^10No_unit. Regarding `c1ccc2c(c1)COC1(CCCCC1)OC2`, the K is reported as 3.3 10^6No_unit. Still for that read-out and setting: for `C1CCC2(CC1)OCCCO2` the value was 2.1 10^7No_unit. `COC1(C)OCCCO1`: the K is 2.4 10^9No_unit.

Take `c1ccc2c(c1)COC1(CCCCC1)O2`: the K was 2.1 10^4No_unit. Take `c1ccc2c(c1)CCOC1(CCCCC1)O2`: the K is 1.3 10^8No_unit. Still for that read-out and setting: next, `C1CCC2(CC1)OCCCCO2`: 1 10^8No_unit; `CCC1(C)OCCCO1`: 3.7 10^6No_unit; `COC1(OC)OCCCO1`: 2.6 10^8No_unit.

On to `CCOC1(OCC)OCCCO1`, for which the K was 2.3 10^9No_unit.
